Measured values taken from US20050276815A1, “Antiviral activity from medicinal mushrooms” (priority 2004, published 2005).

Key:
[1] = system: Vaccinia; format: cell-based
[2] = system: Cowpox; format: cell-based

**Q.** `Nc1ccn(C[C@@H](CO)OCP(=O)(O)O)c(=O)n1` [CDV] was tested. Which PR CDV EC50 [1] did it give?
**A.** 4.9 µg/mL

**Q.** And the PR CDV EC50 [2]?
**A.** 10.3 µg/mL
